According to ChEMBL document CHEMBL1124313, “Benzodiazepine gastrin and brain cholecystokinin receptor ligands: L-365,260” (J Med Chem, 1989):

Key:
[1] = biological target: T1, Cholecystokinin receptor type A (Rattus norvegicus, UniProt P30551); experiment: Displacement of [125 I] CCK-8 from Cholecystokinin type A receptor of rat pancreas
T1 sequence (P30551 whole entry): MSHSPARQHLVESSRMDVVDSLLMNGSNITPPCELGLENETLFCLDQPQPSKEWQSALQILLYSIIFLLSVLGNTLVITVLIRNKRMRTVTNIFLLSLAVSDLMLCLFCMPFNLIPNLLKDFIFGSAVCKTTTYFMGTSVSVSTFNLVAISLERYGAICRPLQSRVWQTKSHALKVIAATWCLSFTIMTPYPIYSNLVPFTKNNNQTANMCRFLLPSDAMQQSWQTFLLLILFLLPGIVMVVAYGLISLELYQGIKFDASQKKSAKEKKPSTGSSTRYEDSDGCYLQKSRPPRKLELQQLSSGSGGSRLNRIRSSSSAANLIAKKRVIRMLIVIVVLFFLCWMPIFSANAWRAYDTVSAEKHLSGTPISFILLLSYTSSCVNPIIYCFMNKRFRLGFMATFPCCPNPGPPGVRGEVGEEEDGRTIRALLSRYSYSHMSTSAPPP

[2] = Displacement of 125 I-gastrin from gastrin receptor of guinea pig gastric glands

| SMILES | IC50 [1] | IC50 [2] |
| --- | --- | --- |
| CN1C(=O)[C@@H](NC(=O)c2ccc(Cl)cc2)N=C(c2ccccc2F)c2ccccc21 | 0.39 nM |  |
| CCOC(=O)CN1C(=O)C(NC(=O)c2ccc(Cl)cc2)N=C(c2ccccc2F)c2ccccc21 (racemic) |  | 690 nM |
| O=C(Nc1ccc(Cl)cc1)NC1N=C(c2ccccc2F)c2ccccc2NC1=O (racemic) | 110 nM |  |
| CN1C(=O)[C@H](NC(=O)c2ccc(Cl)cc2)N=C(c2ccccc2F)c2ccccc21 | 2.9 nM |  |
